Experimental data as given in paper PMC10419416, “Fighting Pseudomonas aeruginosa Infections: Antibacterial and Antibiofilm Activity of D-Q53 CecB, a Synthetic Analog of a Silkworm Natural Cecropin B Variant” (International Journal of Molecular Sciences, 2023).
Non-standard residues stand in square brackets, D forms with d. Residues, ends and D or L forms follow the SMILES beside them. No end group written: not given here.

Legend:
Format in all cases: cell-based, Pseudomonas aeruginosa
[1] = system: P. aeruginosa biofilms (ATCC 25668); assay: Confocal microscopy of pre-formed biofilm, thickness; conditions: 1 h treatment with 1 MIC (2.2 μM) of 24 h old biofilm; 6-8 confocal fields
Description: Bacteria cells (1 × 10^6 cells/mL) were grown in Permanox four-wells chamber slide systems (1.8 cm^2/well; Nunc® Lab-Tek® Chamber SlideTM system) at 37 °C for 24 h without agitation to allow biofilm formation. […] Negative controls, treated with LB only, were followed in parallel. […] After each staining, samples were washed twice with PBS. After washing, samples were fixed in 4% Paraformaldehyde, mounted in VECTASHIELD® mounting medium (Vector Laboratories, Newark, CA, USA), and observed using a Zeyss LSM 900 Airyscan 2 confocal microscope and a ×63 oil immersion objective. Optical sections (Z-series) were taken at 0.2 μm intervals. Experiments were performed four times (one-two replicates per condition). […] EPS was visualized using a 405 nm wavelength for excitation and 413-480 nm for emission (blue); to detect proteins or Propidium Iodide (red), a 543 nm wavelength for excitation and 590-610 nm for emission were used. Post-acquisition analyses were performed with Fiji (http://fiji.sc/wiki/index.php, downloaded on 4 April 2022). Cross-section views (x-z and y-z planes were obtained with the “Orthogonal View” plugin. To evaluate live and dead cells, images of single 0.13 μm slices taken in the upper part of the biofilm (i.e., in contact with the peptide during treatment) were processed using the “Counting Objects” plugin, and the same threshold level for red and green colors.

[2] = system: P. aeruginosa ATCC 25668, mucoid strain; conditions: for inhibitory effect on biofilm formation: 1/32 and 1/64 MIC, 24 h
Description: (§1) An ON bacterial culture was diluted to 2 × 10^6 cells/mL in an LB medium. 50 µL/well were seeded in a sterile non-treated polystyrene 96-well plate (Corning) and added with 50 µL LB medium containing serial dilutions of each compound (final concentrations of L- and D-Q53 CecB peptides: from 0.034 to 17.6 µM; final concentrations of tobramycin: 0.27 and 0.53 μM, and from 2.14 to 17 μM). Each condition was tested in three-six replicates. Wells containing untreated bacteria (negative controls) or LB medium only (blank) were followed in parallel. Each plate was incubated for 24 h at 37 °C without agitation. After washing twice, samples were stained with a 0.1% crystal violet solution for 20 min, washed three times, and incubated in 30% acetic acid for 20 min, as in [74]. Plates were read at 595 nm using a microplate reader. For each sample, the biofilm biomass percentage was calculated relative to that of the untreated control showing the highest OD value, set equal to 100%. Each experiment was performed at least twice.

[3] = system: P. aeruginosa ATCC 27853, non-mucoid strain; conditions: for inhibitory effect on biofilm formation: 1/32 and 1/64 MIC, 24 h; for decrement in biofilm biomass (inhibition of biofilm formation): ATCC 27853, 24 h
Description: as §1

[4] = system: P. aeruginosa ATCC 27853 and ATCC 25668 strains; assay: Growth curves with sub-MIC concentrations; conditions: growth curves 14 h, OD600, AUC vs untreated; both strains; 1 MIC = 2.2 μM
Description: Microbial suspensions in LB medium (positive controls) and wells with LB medium only (negative controls) were followed in parallel. Plates were incubated at 37 °C with agitation (300 rpm), and the absorbance was measured every 2 h for 14 h at 600 nm. For each time point, a ΔOD600 was determined by subtracting the OD600 recorded at time 0 from those obtained at the different time-points. To establish the peptide concentration not inhibiting bacterial growth, for each treatment, the Area Under the Curve (AUC) was calculated and compared to that of untreated controls.
Supplementary Figure S3. Growth curves of P. aeruginosa treated with of L-Q 53 CecB and D-Q 53 CecB peptides at sub-MIC concentrations. ATCC 27853 strain treated with (A) L-Q 53 CecB and (B) D-Q 53 CecB. ATCC 25668 strain treated with (C) L-Q 53 CecB and (D) D-Q 53 CecB. Bacteria treated with 1 MIC L- or D- Q53 CecB peptides and untreated bacteria represent positive and negative controls, respectively. One-w ay ANOVA followed by post-h oc Dunnett’s tests […]
samples and negative controls [A TCC 27853: (A) F4, 10 = 257.8, p < 0.0001; 1/2 MIC L-Q 53 CecB vs negative controls:
Dunnett’s test p > 0.05, ns; (B) F 4,10 = 256.9, p < 0.0001; 1/4 MIC D-Q 53 CecB vs negative controls: Dunnett’s test p > 0.05, […]
= 43.58, p < 0.0001; 1/4 MIC D-Q 53 CecB vs negative controls: Dunnett’s test p > 0.05, ns]. […]

[5] = system: P. aeruginosa ATCC 25668, mucoid strain; assay: Degradation of pre-formed 24 h old biofilm, crystal violet; conditions: for mean decrement in biomass of pre-formed biofilm: 1 h treatment of 24 h old biofilm
Description: (§2) One hundred μL of bacteria (1 × 10^6 cells/mL), derived from a fresh ON culture, were seeded in a sterile non-treated polystyrene 96-well plate (Corning) and incubated for 24 h at 37 °C without agitation. […] Evaluation of biofilm biomass was performed using a crystal violet assay as described above (Section 4.8). Experiments were performed two-four times.

[6] = system: P. aeruginosa ATCC 27853, non-mucoid strain; assay: as above; conditions: for mean decrement in biomass of pre-formed biofilm: 1 h treatment of 24 h old biofilm
Description: as §2

Molecule	reduction in biofilm thickness vs untreated controls [1]	inhibitory effect on biofilm formation [2]	decrement in biofilm biomass (inhibition of biofilm formation) ([2]; ATCC 25668, 24 h) [%]	inhibitory effect on biofilm formation [3]	decrement in biofilm biomass (inhibition of biofilm formation) [3] [%]	sub-MIC concentration not inhibiting bacterial growth [4]	reduction of pre-formed biofilm biomass ([5]; 4 MIC, 1 h, single sample)	reduction of pre-formed biofilm biomass at all tested concentrations ([5]; 1 h, L-Q53 CecB 1/2 to 8 MIC (except 4 MIC), tobramycin 1 to 8 MIC)	reduction of pre-formed biofilm biomass at all tested concentrations ([6]; 1 h, L-Q53 CecB 1/2 to 8 MIC, tobramycin 1 to 8 MIC)	mean decrement in biofilm biomass (inhibition of biofilm formation) ([2]; ATCC 25668, 24 h) [%]	mean decrement in biomass of pre-formed biofilm ([5]; 1/2 MIC (1.1 μM)) [%]	reduction of pre-formed biofilm ([5]; 1/4 MIC (0.55 μM), 1 h)	mean decrement in biomass of pre-formed biofilm ([5]; 8 MIC (17.6 μM)) [%]	mean decrement in biomass of pre-formed biofilm ([6]; 1/2 MIC (1.1 μM)) [%]	reduction of pre-formed biofilm ([6]; 1/4 MIC (0.55 μM), 1 h)	mean decrement in biomass of pre-formed biofilm ([6]; 8 MIC (17.6 μM)) [%]
RWKIFKKIEKMGRNIRDGIVKAGPAIQVLGSAKAI-NH2 [L-Q53 CecB]	did not significantly reduce biofilm thickness	did not show any significant inhibitory effect	30 to 44	did not show any significant inhibitory effect	30 to 60	1/2	significant biofilm biomass decrements	did not significantly reduce biofilm biomass	did not significantly reduce biofilm biomass	–	–	–	–	–	–	–
CC[C@@H](C)[C@@H](NC(=O)[C@@H](C)NC(=O)[C@@H](CCCCN)NC(=O)[C@@H](C)NC(=O)[C@@H](CO)NC(=O)CNC(=O)[C@@H](CC(C)C)NC(=O)[C@H](NC(=O)[C@@H](CCC(N)=O)NC(=O)[C@H](NC(=O)[C@@H](C)NC(=O)[C@H]1CCCN1C(=O)CNC(=O)[C@@H](C)NC(=O)[C@@H](CCCCN)NC(=O)[C@H](NC(=O)[C@H](NC(=O)CNC(=O)[C@@H](CC(=O)O)NC(=O)[C@@H](CCCNC(=N)N)NC(=O)[C@H](NC(=O)[C@@H](CC(N)=O)NC(=O)[C@@H](CCCNC(=N)N)NC(=O)CNC(=O)[C@@H](CCSC)NC(=O)[C@@H](CCCCN)NC(=O)[C@@H](CCC(=O)O)NC(=O)[C@H](NC(=O)[C@@H](CCCCN)NC(=O)[C@@H](CCCCN)NC(=O)[C@@H](Cc1ccccc1)NC(=O)[C@H](NC(=O)[C@@H](CCCCN)NC(=O)[C@@H](Cc1c[nH]c2ccccc12)NC(=O)[C@H](N)CCCNC(=N)N)[C@H](C)CC)[C@H](C)CC)[C@H](C)CC)[C@H](C)CC)C(C)C)[C@H](C)CC)C(C)C)C(N)=O [D-Q53 CecB] (H-[dR][dW][dK][dI][dF][dK][dK][dI][dE][dK][dM]G[dR][dN][dI][dR][dD]G[dI][dV][dK][dA]G[dP][dA][dI][dQ][dV][dL]G[dS][dA][dK][dA][dI]-NH2; N-terminus and C-terminus assumed)	~ 77%	did not show any significant inhibitory effect	30 to 44	did not show any significant inhibitory effect	30 to 60	1/4	–	–	–	93	38	lost its ability to reduce pre-formed biofilms	52	49	lost its ability to reduce pre-formed biofilms	64
